Here are results for eight compounds from patent US12606548B2, “Fungicidal oxadiazoles” (FMC CORPORATION, priority 2019, dated 2026).

Marks after values point to notes of the source that are not given here.

Type in all cases: in vivo
In one assay the test system is Phakopsora pachyrhizi. As to the kind of experiment: Test A: test suspension sprayed on soybean seedlings, inoculated next day with Phakopsora pachyrhizi (Asian soybean rust), visual disease rating. The note with it: for Test A rating (% disease control): relative to the controls. Put shortly:
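Compounds first dissolved in acetone (3% of final volume), then suspended in acetone/water 50/50 with 250 ppm PEG400 and sprayed to run-off on soybean seedlings at the stated ppm rate. Inoculated next day with P. pachyrhizi spores; 24 h saturated atmosphere at 22 °C, then 8 days in growth chamber at 22 °C before visual disease rating.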

The test system of assay [1] is Puccinia recondita f. sp. tritici. The experiment in a line: Test C: test suspension sprayed on wheat seedlings, inoculated next day with Puccinia recondita f. sp. tritici (wheat leaf rust), visual disease rating. As to conditions: for Test C rating (% disease control): relative to the controls. Put shortly: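 Compounds dissolved in acetone (3% of final volume), suspended in acetone/water 50/50 with 250 ppm PEG400 and sprayed to run-off on wheat seedlings at the listed ppm rate. Inoculated next day with P. recondita spores; 24 h saturated atmosphere at 20° C, then 6 days growth chamber at 20° C; visual disease rating.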

The next assay deals with Zymoseptoria tritici. The experiment in a line: Test B: test suspension sprayed on wheat seedlings, inoculated next day with Zymoseptoria tritici (wheat leaf blotch), visual disease rating. As to conditions: for Test B rating (% disease control): relative to the controls. The text has this:
General protocol for preparing test suspensions for Tests A-C: the test compounds were first dissolved in acetone in an amount equal to 3% of the final volume and then suspended at the desired concentration (in ppm) in acetone and purified water (50/50 mix by volume) containing 250 ppm of the surfactant PEG400 (polyhydric alcohol esters). The resulting test suspensions were then used in Tests A-C.
The test suspension was sprayed to the point of run-off on wheat seedlings. The following day the seedlings were inoculated with a spore suspension of Zymoseptoria tritici (the causal agent of wheat leaf blotch) and incubated in a saturated atmosphere at 24° C., for 48 h, and then moved to a growth chamber at 20° C., for 17 days, after which time visual disease ratings were made.
Results for Tests A-C are given in Table A. In the Table, a rating of 100 indicates 100% disease control and a rating of 0 indicates no disease control (relative to the controls). A dash (-) indicates the compound was not tested. The test suspensions were sprayed at the concentration listed in the column “Rate in ppm”, unless otherwise indicated. An asterisk “*” next to the rating indicates a 250 ppm test suspension was used, a double asterisk “**” next to the rating indicates a 100 ppm test suspension was used, and a triple asterisk “***” next to the rating indicates a 50 ppm test suspension was used.

On to `O=C(NCCC(F)(F)F)c1csc(Cc2ccc(-c3noc(C(F)(F)F)n3)cc2)n1` [compound 397], for which the “Test A rating (% disease control)” value with Phakopsora pachyrhizi (Rate 10 ppm test suspension) was 100%. For the same compound, in assay [1] (Rate 10 ppm test suspension), the “Test C rating (% disease control)” value amounted to 98%. Besides, the “Test B rating (% disease control)” value in the assay with Zymoseptoria tritici (250 ppm test suspension) is listed as 82* %.

Take `Cc1ccccc1C(O)c1ccc(-c2noc(C(F)(F)F)n2)cc1` (racemic) [Compound 497]: the “Test A rating (% disease control)” value in the assay on Phakopsora pachyrhizi (Rate 10 ppm test suspension) was found to be 100%. The “Test C rating (% disease control)” value in assay [1] (Rate 10 ppm test suspension) was 0%. Moreover, the “Test B rating (% disease control)” value with Zymoseptoria tritici (250 ppm test suspension) was 5* %.

Take `N#CCCNC(=O)c1coc(Cc2ccc(-c3noc(C(F)(F)F)n3)cc2)n1` [compound 229]: the “Test A disease control rating” value with Phakopsora pachyrhizi (10 ppm test suspension) is 100%. Moreover, the “Test C disease control rating” value in assay [1] (10 ppm test suspension) was found to be 100%. Further, the “Test B disease control rating” value with Zymoseptoria tritici (250 ppm test suspension) is listed as 94* %.

In the case of `O=C(NCC=C(Cl)Cl)c1coc(Cc2ccc(-c3noc(C(F)(F)F)n3)cc2)n1` [compound 399], in the assay on Phakopsora pachyrhizi (Rate 10 ppm test suspension), the “Test A rating (% disease control)” value turned out to be 100%. For the same compound, in assay [1] (Rate 10 ppm test suspension), the “Test C rating (% disease control)” value is reported as 99%. Moreover, the “Test B rating (% disease control)” value with Zymoseptoria tritici (250 ppm test suspension) was 10* %.

Regarding `CCOC(=O)c1cnn(CCN2CCC(c3noc(C(F)(F)F)n3)CC2)c1` [compound 459], the “Test A rating (% disease control)” value in the assay with Phakopsora pachyrhizi (Rate 50 ppm test suspension) came to 0%. The “Test C rating (% disease control)” value in assay [1] (Rate 50 ppm test suspension) is recorded as 0%. Also, the “Test B rating (% disease control)” value with Zymoseptoria tritici (250 ppm test suspension) is on record as 0* %.

On to “ethyl 1-[[4-[5-(trifluoromethyl)-1,2,4-oxadiazol-3-yl]phenyl]methyl]-1H-pyrazole-4-carboxylate [Compound 83]”, for which the “Test A disease control rating” value with Phakopsora pachyrhizi (270 ppm test suspension) was 100%. The “Test C disease control rating” value in assay [1] (270 ppm test suspension) was 100%. Moreover, the “Test B disease control rating” value with Zymoseptoria tritici (270 ppm test suspension) is listed as 5%.

Regarding `O=C(CCl)COC(=O)c1cnn(Cc2ccc(-c3noc(C(F)(F)F)n3)cc2)c1` [compound 495], the “Test A rating (% disease control)” value with Phakopsora pachyrhizi (Rate 10 ppm test suspension) was 100%. Besides, in assay [1] (Rate 10 ppm test suspension), the “Test C rating (% disease control)” value was 0%. Besides, in the assay with Zymoseptoria tritici (250 ppm test suspension), the “Test B rating (% disease control)” value was 43* %.

As for `OC(c1ccc(-c2noc(C(F)(F)F)n2)cc1)c1cccc(F)c1` (racemic) [compound 498], in the assay on Phakopsora pachyrhizi (Rate 10 ppm test suspension), the “Test A rating (% disease control)” value is listed as 100%. In addition, the “Test C rating (% disease control)” value in assay [1] (Rate 10 ppm test suspension) was 0%. Moreover, the “Test B rating (% disease control)” value in the assay with Zymoseptoria tritici (250 ppm test suspension) was 43* %.
